{
  "source": "patent US4735955A",
  "about": "“2-substituted cycloheptoimidazole derivatives and anti-ulcerative agents containing the same” (Kotobuki Seiyaku Co., Ltd., priority 1985, dated 1988)",
  "key": {"[1]": {"test_system": "gastric-acid secretion", "assay": "Gastric acid antisecretory activity, pylorus-ligated rat (method of Shay)", "format": "in vivo", "details": "intraduodenal, 50 mg/kg intraduodenally just after pylorus ligation, 4 hours after ligation, read-out: Total Acid Inhibition", "experimental": "Gastric acid antisecretory activities\nInhibitory activities of gastric-acid secretion are determined by the method of Shay (Gastroenterology 26, 906). Rats are fasted for 24 hours and pylorus ligation is carried out under light anesthesia.\nDrug is given intraduodenally just after the ligation. Four hours after ligation, the stomach of the rat is removed and the acidity of gastric juice is determined."}, "[2]": {"assay": "Cytoprotective activity, inhibition of ethanol-induced ulcer (method of Robert)", "format": "in vivo", "details": "rat, 100 mg/kg perorally 30 minutes before 1 ml absolute ethanol, stomach removed one hour after ethanol", "experimental": "Cytoprotective Activities\nInhibitory activities of ethanol-induced ulcer are determined by the method of Robert (Gastroenterology 77, 433~443). Rats are fasted for 24 hours and are given 1 ml of absolute ethanol perorally. One hour after administration of ethanol, the stomach of the rat is removed. The length of each ulcer occurring in the grandulor stomach is determined and each ulcer in one rat is accounted as the ulcer-index. The test compounds are given perorally 30 minutes before absolute ethanol administration."}, "[3]": {"target": "T1, (H^+,K^+)ATPase (Sus scrofa, UniProt P19156)", "T1 construct": "(H^+,K^+)ATPase is prepared from the pig gastric mucosa; from tissue; host or cells: pig gastric mucosa", "T1 sequence (P19156 2-1034 limits assumed)": "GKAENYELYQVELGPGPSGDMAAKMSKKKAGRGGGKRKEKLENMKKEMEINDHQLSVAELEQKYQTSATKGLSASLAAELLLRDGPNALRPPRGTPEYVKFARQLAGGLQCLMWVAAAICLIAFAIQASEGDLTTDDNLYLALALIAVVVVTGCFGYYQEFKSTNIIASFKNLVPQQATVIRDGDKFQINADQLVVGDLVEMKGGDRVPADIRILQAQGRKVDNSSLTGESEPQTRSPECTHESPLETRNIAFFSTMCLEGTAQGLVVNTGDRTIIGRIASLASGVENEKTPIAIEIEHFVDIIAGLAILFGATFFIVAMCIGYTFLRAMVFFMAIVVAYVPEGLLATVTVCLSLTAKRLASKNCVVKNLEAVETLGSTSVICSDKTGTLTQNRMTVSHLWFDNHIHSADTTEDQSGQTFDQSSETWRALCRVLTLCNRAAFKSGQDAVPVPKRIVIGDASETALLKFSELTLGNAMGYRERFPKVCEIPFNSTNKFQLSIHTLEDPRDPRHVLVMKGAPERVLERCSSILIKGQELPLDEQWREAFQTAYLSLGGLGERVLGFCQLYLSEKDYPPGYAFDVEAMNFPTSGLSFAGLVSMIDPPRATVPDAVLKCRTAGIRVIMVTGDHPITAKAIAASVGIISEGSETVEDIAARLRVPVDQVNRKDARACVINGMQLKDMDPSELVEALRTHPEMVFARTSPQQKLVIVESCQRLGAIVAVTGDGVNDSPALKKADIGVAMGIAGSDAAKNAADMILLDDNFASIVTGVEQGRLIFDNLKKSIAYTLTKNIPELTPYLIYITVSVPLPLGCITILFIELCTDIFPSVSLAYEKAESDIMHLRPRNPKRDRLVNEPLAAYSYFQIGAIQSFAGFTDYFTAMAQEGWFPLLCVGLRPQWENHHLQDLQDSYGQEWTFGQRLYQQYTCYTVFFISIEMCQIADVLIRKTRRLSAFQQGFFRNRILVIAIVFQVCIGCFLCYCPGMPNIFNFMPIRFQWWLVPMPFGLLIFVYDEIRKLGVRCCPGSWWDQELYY", "T1 sequence (P18434 whole entry partner)": "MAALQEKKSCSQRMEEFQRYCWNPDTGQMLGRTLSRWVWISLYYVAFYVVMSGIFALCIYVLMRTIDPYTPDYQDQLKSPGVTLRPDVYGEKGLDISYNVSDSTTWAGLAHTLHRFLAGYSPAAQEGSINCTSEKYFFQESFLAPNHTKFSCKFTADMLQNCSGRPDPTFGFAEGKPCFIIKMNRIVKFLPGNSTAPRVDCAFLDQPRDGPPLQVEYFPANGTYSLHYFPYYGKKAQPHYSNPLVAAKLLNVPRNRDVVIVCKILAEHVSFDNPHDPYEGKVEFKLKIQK", "assay": "Inhibition of (H^+,K^+)ATPase activity (method of Fellenius)", "format": "biochemical", "details": "3 × 10^-4 M, pig gastric mucosa, pH 7.4, 37° C.", "experimental": "Inhibition of (H^+,K^+)ATPase activities. Inhibition of (H^+,K^+) ATPase activities is determined by the method of F. Fellenius et al., Nature 290, pp. 159~161, 1981. (H^+,K^+)ATPase is prepared from the pig gastric mucosa and the test compound is incubated with […], 40 mM of tris-buffer (pH 7.4), 2 mM of MgCl2 and 10 mM of KCl at 37° C. Inorganic phosphate occurring by stimulation of ATPase is determined."}},
  "data": [
    {"smiles": "Cc1ccc(C[S+]([O-])c2nc3cccccc-3n2)cc1", "note": "(centres unmarked) [Compound 45, 2-(p-Tolyl)methylthio-cycloheptoimidazole-S-oxide]", "values": [
      {"measurement": "inhibition in vivo at 50 mg/kg", "setting": "[1]", "value": 90.7, "unit": "%"}
    ]},
    {"smiles": "c1ccc2nc(SCc3cccnc3)nc-2cc1", "note": "[Compound 9, 2-(3-Pyridyl)methylthio-cycloheptoimidazole]", "values": [
      {"measurement": "Inhibition of ethanol-induced ulcer", "setting": "[2]", "value": 83.1, "unit": "%"}
    ]},
    {"smiles": "Nc1cccc(CSc2nc3cccccc-3n2)c1", "note": "[Compound 30, 2-(m-Aminophenyl)methylthio-cycloheptoimidazole]", "values": [
      {"measurement": "inhibition in vivo at 50 mg/kg", "setting": "[1]", "value": 52.5, "unit": "%"}
    ]},
    {"smiles": "Cc1nc(-c2ccccc2)c(CSc2nc3cccccc-3n2)o1", "note": "[Compound 37, 2-(2-Methyl-4-Phenyloxazole-5-yl)methylthio-cycloheptoimidazole]", "values": [
      {"measurement": "inhibition at 300 µM", "setting": "[3]", "value": 48, "unit": "%"}
    ]},
    {"smiles": "CSc1nnc(CSc2nc3cccccc-3n2)s1", "note": "[Compound 8, 2-(2-Methylthio-1,3,4-thiadiazole-5-yl)methylthio-cycloheptoimidazole]", "values": [
      {"measurement": "inhibition in vivo at 50 mg/kg", "setting": "[1]", "value": 20.6, "unit": "%"}
    ]},
    {"smiles": "COc1ccc(C[S+]([O-])c2nc3cccccc-3n2)c(OC)c1OC", "note": "(centres unmarked) [Compound 44, 2-(2,3,4-Trimethoxyphenyl)methylthio-cycloheptoimidazole-S-oxide]", "values": [
      {"measurement": "inhibition in vivo at 50 mg/kg", "setting": "[1]", "value": 89.8, "unit": "%"},
      {"measurement": "inhibition at 300 µM", "setting": "[3]", "value": 25, "unit": "%"}
    ]},
    {"smiles": "COc1ccc(C[S+]([O-])c2nc3cccccc-3n2)cc1", "note": "(centres unmarked) [Compound 47, 2-(p-Methoxyphenyl)methylthio-cycloheptoimidazole-S-oxide]", "values": [
      {"measurement": "inhibition in vivo at 50 mg/kg", "setting": "[1]", "value": 90.7, "unit": "%"},
      {"measurement": "inhibition at 300 µM", "setting": "[3]", "value": 32, "unit": "%"}
    ]},
    {"smiles": "Cc1oncc1CSc1nc2cccccc-2n1", "note": "[Compound 34, 2-(5-Methylisoxazole-4-yl)methylthio-cycloheptoimidazole]", "values": [
      {"measurement": "inhibition in vivo at 50 mg/kg", "setting": "[1]", "value": 70.1, "unit": "%"}
    ]},
    {"smiles": "[O-][S+](Cc1c[nH]cn1)c1nc2cccccc-2n1", "note": "(centres unmarked) [Compound 51, 2-(4-imidazolyl)methylthio-cycloheptoimidazole-S-oxide]", "values": [
      {"measurement": "inhibition in vivo at 50 mg/kg", "setting": "[1]", "value": 63.6, "unit": "%"}
    ]},
    {"smiles": "COc1ccc(CSc2nc3cccccc-3n2)cc1", "note": "[Compound 26, 2-(p-Methoxyphenyl)methylthio-cycloheptoimidazole]", "values": [
      {"measurement": "inhibition in vivo at 50 mg/kg", "setting": "[1]", "value": 81.6, "unit": "%"}
    ]},
    {"smiles": "CN(C)c1ccc(C[S+]([O-])c2nc3cccccc-3n2)cc1", "note": "(centres unmarked) [Compound 49, 2-(p-Dimethylaminophenyl)methylthio-cycloheptoimidazole-S-oxide]", "values": [
      {"measurement": "inhibition in vivo at 50 mg/kg", "setting": "[1]", "value": 33.6, "unit": "%"}
    ]},
    {"smiles": "c1ccc2nc(SCc3c[nH]cn3)nc-2cc1", "note": "[Compound 13, 2-(4-imidazolyl)methylthio-cycloheptoimidazole]", "values": [
      {"measurement": "inhibition in vivo at 50 mg/kg", "setting": "[1]", "value": 66.5, "unit": "%"},
      {"measurement": "Inhibition of ethanol-induced ulcer", "setting": "[2]", "value": 88.1, "unit": "%"}
    ]},
    {"smiles": "CC(C)c1ccc2nc(SCc3csc(N)n3)nc-2cc1", "note": "[Compound 15, 2-(2-Aminothiazole-4-yl)methylthio-6-isopropyl-cycloheptoimidazole]", "values": [
      {"measurement": "inhibition in vivo at 50 mg/kg", "setting": "[1]", "value": 21, "unit": "%"},
      {"measurement": "Inhibition of ethanol-induced ulcer", "setting": "[2]", "value": 90.0, "unit": "%"}
    ]},
    {"smiles": "c1ccc2nc(SCc3ccn[nH]3)nc-2cc1", "note": "[Compound 10, 2-(5-Pyrazolyl)methylthio-cycloheptoimidazole]", "values": [
      {"measurement": "inhibition in vivo at 50 mg/kg", "setting": "[1]", "value": 54.4, "unit": "%"}
    ]},
    {"smiles": "c1ccc2nc(SCCn3cnc4ccccc43)nc-2cc1", "note": "[Compound 3, 2-(1-Benzimidazolyl)ethylthio-cycloheptoimidazole]", "values": [
      {"measurement": "inhibition in vivo at 50 mg/kg", "setting": "[1]", "value": 22.4, "unit": "%"}
    ]},
    {"smiles": "Clc1ccc(CSc2nc3cccccc-3n2)cc1", "note": "[Compound 28, 2-(p-Chlorophenyl)methylthio-cycloheptoimidazole]", "values": [
      {"measurement": "inhibition in vivo at 50 mg/kg", "setting": "[1]", "value": 39.1, "unit": "%"}
    ]},
    {"smiles": "Cc1noc(C)c1C[S+]([O-])c1nc2cccccc-2n1", "note": "(centres unmarked) [Compound 53, 2(3,5-Dimethylisoxazole-4-yl)methylthio-cycloheptoimidazole-S-oxide]", "values": [
      {"measurement": "inhibition in vivo at 50 mg/kg", "setting": "[1]", "value": 95.7, "unit": "%"},
      {"measurement": "inhibition at 300 µM", "setting": "[3]", "value": 45, "unit": "%"}
    ]},
    {"smiles": "Cc1cc(C[S+]([O-])c2nc3cccccc-3n2)on1", "note": "(centres unmarked) [Compound 52, 2-(3-Methylisoxazole-5-yl)methylthio-cycloheptoimidazole-S-oxide]", "values": [
      {"measurement": "inhibition in vivo at 50 mg/kg", "setting": "[1]", "value": 96.9, "unit": "%"}
    ]},
    {"smiles": "Nc1nc(CSc2nc3cccccc-3n2)cs1", "note": "[Compound 14, 2-(2-Aminothiazole-4-yl)methylthio-cycloheptoimidazole]", "values": [
      {"measurement": "Inhibition of ethanol-induced ulcer", "setting": "[2]", "value": 90.3, "unit": "%"}
    ]},
    {"smiles": "CC(C)c1ccc2nc(SCc3ccccn3)nc-2cc1", "note": "[Compound 1, 2-(2-Pyridyl)methylthio-6-isopropyl-cycloheptoimidazole]", "values": [
      {"measurement": "inhibition in vivo at 50 mg/kg", "setting": "[1]", "value": 80.5, "unit": "%"}
    ]},
    {"smiles": "c1ccc(CSc2nc3cccccc-3n2)cc1", "note": "[Compound 31, 2-(Phenyl)methylthio-cycloheptoimidazole]", "values": [
      {"measurement": "inhibition in vivo at 50 mg/kg", "setting": "[1]", "value": 78.9, "unit": "%"}
    ]},
    {"smiles": "Nc1ccccc1CSc1nc2cccccc-2n1", "note": "[Compound 57, 2-(o-aminophenyl)methylthio-cycloheptoimidazol]", "values": [
      {"measurement": "inhibition in vivo at 50 mg/kg", "setting": "[1]", "value": 92.9, "unit": "%"},
      {"measurement": "inhibition at 300 µM", "setting": "[3]", "value": 46, "unit": "%"}
    ]},
    {"smiles": "c1ccc2nc(SCc3ccncc3)nc-2cc1", "note": "[Compound 12, 2-(4-Pyridyl)methylthio-cycloheptoimidazole]", "values": [
      {"measurement": "inhibition in vivo at 50 mg/kg", "setting": "[1]", "value": 66.8, "unit": "%"}
    ]}
  ]
}
